# Results: patent publication EP4603105A1, “PHARMACEUTICAL COMPOSITION CONTAINING CYCLIC COMPOUND HAVING SELECTIVE KRAS INHIBITORY EFFECT AGAINST HRAS AND NRAS” (CHUGAI SEIYAKU KABUSHIKI KAISHA, priority 2022, dated 2024)
# Where a SMILES comes first, the peptide text is derived from it. Bridges are numbered along the chain shown (N, C = ends). [ ]: non-standard residue; d: D form. The star is where a group is joined. hPhe(3-Cl-4-CF3) = N[C@@H](CCc1ccc(C(F)(F)F)c(Cl)c1)C(=O)O; NPrPhe(4-CF3) = CCCN[C@@H](Cc1ccc(C(F)(F)F)cc1)C(=O)O; NMeGly(cPent) = CN[C@H](C(=O)O)C1CCCC1; NMeD = CN[C@@H](CC(=O)O)C(=O)O; NMeL = CN[C@@H](CC(C)C)C(=O)O; Morpholide = C1CN(*)CCO1; Ac5c = NC1(C(=O)O)CCCC1; NEtG = CCNCC(=O)O; Sar = CNCC(=O)O
# Key:
# HRAS wild-type protein = HRAS wild-type protein (Homo sapiens, UniProt P01112); assay: Binding to HRAS by surface plasmon resonance (SPR), KD and KD ratio to KRAS
# Sequence of HRAS wild-type protein (P01112 whole entry): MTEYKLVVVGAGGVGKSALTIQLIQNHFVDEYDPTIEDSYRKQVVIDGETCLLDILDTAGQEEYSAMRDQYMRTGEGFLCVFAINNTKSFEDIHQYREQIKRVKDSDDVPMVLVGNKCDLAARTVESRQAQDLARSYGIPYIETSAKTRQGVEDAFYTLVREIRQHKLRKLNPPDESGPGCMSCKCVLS
# Outline: (§1)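 SPR, 30°C: Avi-biotin RAS·GDP captured via Biotin CAPture (~100–300 RU); running buffer HBS pH 7.4, 1 mM DTT, 10 mM MgCl2, 0.01% Tween 20, 10 µM GDP, 4% DMSO. Single-cycle kinetics, 100 µL/min, 75 s injections; 1:1 model → KD.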
# [1] = test system: human lung cancer strain NCI-H441; format: cell-based
# Outline: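 Proliferation was scored by […] measured after the reagent was added to cultures kept at 37°C in 5% carbon dioxide.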
# [2] = molecular target: GDP-bound NRAS wild-type protein (Homo sapiens, UniProt P01111); assay: Binding to NRAS by surface plasmon resonance (SPR), KD and KD ratio to KRAS
# Sequence of GDP-bound NRAS wild-type protein (P01111 whole entry): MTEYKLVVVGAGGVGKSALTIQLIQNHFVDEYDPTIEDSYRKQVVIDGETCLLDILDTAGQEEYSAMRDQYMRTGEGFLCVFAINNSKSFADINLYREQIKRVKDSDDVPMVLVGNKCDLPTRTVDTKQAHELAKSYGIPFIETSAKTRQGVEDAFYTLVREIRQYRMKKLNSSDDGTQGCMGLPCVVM
# Outline: as §1
# [3] = ratio of KD value for HRAS wild-type protein to KD value for KRAS (SPR)
# [4] = ratio of KD value for GDP-bound NRAS wild-type protein to KD value for KRAS (SPR)
# [5] = ratio of the KD value with respect to HRAS wild-type protein to the KD value with respect to KRAS
# [6] = ratio of the KD value with respect to GDP-bound NRAS wild-type protein to the KD value with respect to KRAS
# [7] = ratio of KD for HRAS wild-type protein to KD for KRAS
# [8] = ratio of KD for GDP-bound NRAS wild-type protein to KD for KRAS
IC50 [1],SMILES,HRAS /KRAS (HRAS wild-type protein; [3]),"NRAS /KRAS [2, 4]",HRAS /KRAS (HRAS wild-type protein; [5]),"NRAS /KRAS [2, 6]",HRAS /KRAS (HRAS wild-type protein; [7]),"NRAS /KRAS [2, 8]"
105 nM,CCO[C@@H]1C[C@H]2C(=O)NC3(CCC3)C(=O)N(C)[C@@H](C3CCCC3)C(=O)N(C)[C@H](C(=O)N(C)C)CC(=O)N(C)[C@@H](CC)C(=O)N[C@@H]([C@@H](C)CC)C(=O)N(C)CC(=O)N(C)[C@H]3C/C=C\CCN(C3=O)[C@@H](Cc3ccc(C(F)(F)F)cc3)C(=O)N(C)CC(=O)N[C@@H](CCc3cc(C)c(Cl)c(C)c3)C(=O)N2C1 [PP1821],A (a compound having 10 or more and less than 20 is denoted as A),A (a compound having 10 or more and less than 20 is denoted as A),,,,
29.6 nM,CCO[C@@H]1C[C@H]2C(=O)NC3(CCC3)C(=O)N(C)[C@@H](C3CCCC3)C(=O)N(C)[C@H](C(=O)N(C)C)CC(=O)N(C)[C@@H](C)C(=O)N[C@@H]([C@H](C)CC)C(=O)N(C)CC(=O)N(C)[C@H]3CCCCN(C3=O)[C@@H](Cc3ccc(C(F)(F)F)cc3)C(=O)N(C)CC(=O)N[C@@H](CCc3cc(F)c(C(F)(F)F)c(F)c3)C(=O)N2C1 [PP0730],,,C (A compound having a KD ratio of 0.1 or more and less than 3 is denoted as C),C (A compound having a KD ratio of 0.1 or more and less than 3 is denoted as C),,
17.3 nM,CCO[C@@H]1C[C@H]2C(=O)NC3(CCC3)C(=O)N(C)[C@@H](C3CCCC3)C(=O)N(C)[C@H](C(=O)N(C)C)CC(=O)N(C)[C@@H](CCC(F)F)C(=O)N[C@@H]([C@@H](C)CC)C(=O)N(C)CC(=O)N(C)[C@H]3C/C=C\CCN(C3=O)[C@@H](Cc3ccc(C(F)(F)F)cc3)C(=O)N(C)CC(=O)N[C@@H](CCc3cc(F)c(C(F)(F)F)c(F)c3)C(=O)N2C1 [PP1121],,,,,A (a compound having 10 or more and less than 20 is denoted as A),A (a compound having 10 or more and less than 20 is denoted as A)
36.4 nM,CCO[C@@H]1C[C@H]2C(=O)NC3(CCC3)C(=O)N(C)[C@@H](C3CCCC3)C(=O)N(C)[C@H](C(=O)N(C)CC)CC(=O)N(C)[C@@H](CC)C(=O)N[C@@H]([C@@H](C)CC)C(=O)N(C)CC(=O)N(C)[C@H]3C/C=C\CCN(C3=O)[C@@H](Cc3ccc(C)cc3)C(=O)N(C)CC(=O)N[C@@H](CCc3ccc(C(F)(F)F)c(OC)c3)C(=O)N2C1 [PP1869],A (a compound having 10 or more and less than 20 is denoted as A),A (a compound having 10 or more and less than 20 is denoted as A),,,,
24.3 nM,CC[C@H](C)[C@@H]1NC(=O)[C@H](CC)N(C)C(=O)C[C@@H](C(=O)N(CC)CC)N(C)C(=O)[C@H](C2CCCC2)N(C)C(=O)C2(CC(C)(C)C2)NC(=O)[C@@H]2C[C@@H](C)CN2C(=O)[C@H](CCc2ccc(C(F)(F)F)c(OC)c2)NC(=O)CN(C)C(=O)[C@H](Cc2ccc(C)cc2)N2CC/C=C\C[C@@H](C2=O)N(C)C(=O)CN(C)C1=O [PP1841],A (a compound having 10 or more and less than 20 is denoted as A),AA (a compound having 20 or more is denoted as AA),,,,
8.8 nM,CCCN1C(=O)CN(C)C(=O)CN(CC)C(=O)[C@H]([C@@H](C)CC)NC(=O)[C@H](CC(C)C)N(C)C(=O)C[C@@H](C(=O)N2CCOCC2)N(C)C(=O)[C@H](C2CCCC2)N(C)C(=O)C2(CCCC2)NC(=O)[C@@H]2CCCN2C(=O)[C@H](CCc2ccc(C(F)(F)F)c(Cl)c2)NC(=O)CN(C)C(=O)[C@@H]1Cc1ccc(C(F)(F)F)cc1 [PP0145] ([NMeL]I[NEtG][Sar][NPrPhe(4-CF3)][Sar][hPhe(3-Cl-4-CF3)]P[Ac5c][NMeGly(cPent)][NMeD]-Morpholide; lactam N-11),,,,,B (a compound having 3 or more and less than 10 is denoted as B),B (a compound having 3 or more and less than 10 is denoted as B)
1.6 nM,CCC[C@H]1C(=O)N[C@@H]([C@@H](C)CC)C(=O)N(C)CC(=O)N(C)[C@H]2C/C=C\CCN(C2=O)[C@@H](Cc2ccc(C(F)(F)F)cc2)C(=O)N(C)CC(=O)N[C@@H](CCc2ccc(C(F)(F)F)c(OC)c2)C(=O)N2C[C@H](OCC)C[C@H]2C(=O)N(C)C2(CCC2)C(=O)N(C)[C@@H](C2CCCC2)C(=O)N(C)[C@H](C(=O)N(C)C)CC(=O)N1C [PP2312],,,B (a compound having 3 or more and less than 10 is denoted as B),A (a compound having 10 or more and less than 20 is denoted as A),,
